Experimental data from patent US6706289B2, “Methods and compositions for enhanced delivery of bioactive molecules” (priority 2000, dated 2004).
Like-named read-outs stand apart in the source and are kept apart here.

Experiments:
[1] = type: physicochemical
Experimental: (§1) Core loading measurement of the microspheres was done by dissolving 10 mg of microspheres in 50% acetonitrile followed by centrifugation to pellet the insoluble polymer. Aliquots were analyzed by RP-HPLC and compared to representative standards prepared in 50% acetonitrile. […] The suspensions were vortexed and incubated at 37° C. After 1 hour, aliquots were removed, filtered and analyzed for the amount released by RP-HPLC.

[2] = Initial release at 1 h, in vitro dissolution of microparticles; type: physicochemical; conditions: Monophase microparticles; PBS (50 mM, pH 7.2), 0.02% Tween 20, 25% EtOH, 37° C.
Experimental: as §1

[3] = Mean particle size of microparticles estimated from SEM; type: physicochemical
normal rats = test: Hypoglycemic effect: blood glucose levels after subcutaneous administration; type: in vivo
Experimental: PEG-Insulin PLGA microspheres and an equivalent dose of free insulin were administered subcutaneously to normal rats. Blood was drawn periodically and anticoagulated. Blood glucose levels were measured by standard tests.

[4] = Double-emulsion (w1/o/w2) PLGA microparticles

Row | Compound | CL—Coreload (wt % of active in microparticle as isolated) [1, 4] [%] | EE—Encapsulation Efficiency (% of active encapsulated in process) [1, 4] [%] | CL—Coreload (wt % of active in microparticle as isolated) ([1]; Monophase PLGA microparticles) [%] | EE—Encapsulation Efficiency (% of active encapsulated in process) ([1]; Monophase PLGA microparticles) [%] | IR—Initial Release at 1 h from in vitro dissolution [2] [%] | PS—Mean Particle Size (estimated from SEM) [3, 4] | PS—Mean Particle Size (estimated from SEM) ([3]; Monophase PLGA microparticles) | % BGL (glucose normalized to a percentage of basal levels) (normal rats; Time 0 hr) [%] | % BGL (glucose normalized to a percentage of basal levels) (normal rats; Time 1 hr) [%] | % BGL (glucose normalized to a percentage of basal levels) (normal rats; Time 2 hr) [%] | % BGL (glucose normalized to a percentage of basal levels) (normal rats; Time 4 hr) [%] | % BGL (glucose normalized to a percentage of basal levels) (normal rats; Time 6 hr) [%] | % BGL (glucose normalized to a percentage of basal levels) (normal rats; Time 8 hr) [%] | % BGL (glucose normalized to a percentage of basal levels) (normal rats; Time 12 hr) [%] | size range of resulting microspheres ([3]; PLGA microspheres (w/o/w), collected on 25 micron sieve)
1 | C[C@@H](NC(=O)[C@@H](N)Cc1ccc(O)cc1)C(=O)NCC(=O)N[C@@H](Cc1ccccc1)C(=O)NNC(=O)[C@H](Cc1ccccc1)NC(=O)CNC(=O)[C@@H](C)NC(=O)[C@@H](N)Cc1ccc(O)cc1 [Biphalin] | 0.24 | 14.28 | 0.36 | 3.64 | 49.4 | 50-250 μm | 20-100 μm | – | – | – | – | – | – | – | –
2 | Insulin: recombinant human insulin; PLGA microparticles of Examples 14 and 16 | 0.23 | – | 0.6 | – | – | 100-350 μm | 30-100 μm | – | – | – | – | – | – | – | –
3 | PEG-Insulin: Human insulin covalently modified with polyethylene glycol, mPEG(5000)-SPA; PLGA microparticles of Examples 15 and 17 | – | – | – | – | – | 50-250 μm | 50-100 μm | 100 | 111.1 | 86.5 | 97 | 98.5 | 82 | 88.8 | –
4 | pegylated GM-CSF: GM-CSF conjugated to tresyl-monomethoxy-polyethylene glycol (MW=5000 daltons); paper example | – | – | – | – | – | – | – | – | – | – | – | – | – | – | 25-200 μm
